Measured values: US11540515B2, “Use of dialkoxybenzenes for control of honey bee mite varroa destructor” (Simon Fraser University, priority 2018, dated 2023)

Tests used:
Varroa = assay: Example 5 Varroa death and paralysis assay, single compounds and blend; parameters: species or system Varroa destructor; conditions: in vivo
Description: Assays were done in 9 cm glass Petri dishes. A 2.5×2.5 cm piece of Parafilm was stuck to the lid of the dish, in the middle. 120 μL water were put on filter paper in the middle of the plate. The Parafilm received 10 μL of hexane, either pure (controls) or with the compound (treatments). The bottom of the dish received one freshly thawed nurse and one freshly thawed forager, placed at opposite sides. One mite was placed between the nurse and the forager, the lid was closed and groups of dishes were placed in an incubator at 30° C. Observation times were at 3 h, 5 h and 20 h. Mites were scored for whether the mite could move normally, was paralyzed (had difficulty moving) or dead (not moving). Four types of experiment were performed in the dishes: i) dose response assays with a single compound at different doses of compound on the Parafilm (1 ng, 10 ng, 100 ng, 1 μg, 10 μg, 100 μg, 1 mg) an assay with blends of compounds 3c{3,6} and 3c{6,6} (pure or 1:1 blend) at 0.5 mg and […].

young bees = assay: Example 2 assay on mites phoretic on young bees: condition of the bees; type: in vivo, Apis mellifera; conditions: end of experiment
Description: (§1) The experiments were conducted in glass petri dish under control environment as described above in Example 1. Two sets of experiments were conducted compound 3c{3,6}:
(§2) 2. Assay on mites phoretic on young bees. In this experiment 100 microgram/μ1 solution and its dilutions were used. Two mites were placed on each living young bee.
(§3) In the second assay the percentage of mites dropping from bees as function of time was measured (FIG. 2).

Varroa destructor mites = assay: Example 3 paralysis assays in petri dishes (dose response, screen, blends); type: in vivo
Description: Paralysis assays. These assays were done in 10 cm glass Petri dishes. A 3×3 cm piece of Parafilm was stuck to the lid of the dish, in the middle. The Parafilm received […], either pure (controls) or with the compound (treatments). The bottom of the dish received one freshly thawed nurse and one freshly thawed forager, placed ˜3 cm from the center of the dish. One mite was placed between the nurse and the forager, the lid was closed and groups of dishes were placed in an incubator at 30° C. Humidity levels were kept at around 35-40%.
Observation times were 3 h and 5 h. Mites were scored for whether the mite could move normally, was paralyzed (had difficulty moving) or dead (not moving).
Each assay was done in 5 technical replicates, in two biological replicates. Thus, each biological replicate was scored out of 5.
Experiments were performed in the dishes: i) dose response assays with a single compound at different doses of compound on the Parafilm (1 ng, 10 ng, 100 ng, 1 μg, 10 μg, 100 μg, 1 mg and 10 mg), ii) a screen with six compounds, all at a 1 mg dose, iii) an assay with blends of compounds 3c{3,6} and 3c{6,6}, and iv) one assay without bees (only to check for mite paralysis and death), with compounds 3c{3,6} and 3c{6,6}(pure or 1:1 blend), at 0.5 and 1 mg doses.

honey bee antennae = assay: Electroantennography (EAG) on honey bee antennae stimulated with nurse bee headspace odor; parameters: species or system Apis mellifera
From the text: (§4) In the electroantennography (EAG), the Varroa foreleg or bee antennae were used for the assay. The organs were stimulated by puffs of nurse honeybee odor, or clean air (control). Briefly, once a foreleg or bee antenna preparation was found responsive to a positive stimulus, the tested chemical was blown over the leg/antenna with or without positive stimuli. Headspace of five nurse bees was used as a positive stimulus. This stimuli were selected for Varroa following the procedure described, for example, in Eliash, N. et al., (2014) PLoS One, (2014) 9(12): e116127, incorporated herein by reference in its entirety, and following dose response tests on nurse antennae challenged with headspace of 1, 5 and 10 nurse or forager bees. Electrophysiological responses of isolated Varroa foreleg and bee antennae were recorded using Synthech equipment, and the order of stimuli was as explained in Singh, K. N. et al., (2014) Apidologie, 46: 380-391, incorporated herein by reference in its entirety. The response amplitude was recorded for each stimulus and normalized relative to air.

Varroa foreleg = assay: Electroantennography (EAG) on Varroa foreleg stimulated with nurse bee headspace odor; parameters: species or system Varroa destructor
From the text: as §4

[1] = test system: Varroa mites in honey bee colony; assay: Colony test with solid 3c{3,6} in organza bags; type: in vivo, Varroa destructor; conditions: after each addition of solid compound in sachets
Description: Colony test. One colony of two supers was treated with solid 3c{3,6}, delivered in organza bags. The colony was otherwise healthy (apart from having Varroa mites), and the bee cluster reached over both boxes. Above the top box was placed a queen excluder and a top-feeding box. The following treatments were done: i) Day 1: 4×60 mg with bags placed above the cluster in the top box (below the queen excluder) only; ii) After 30 days: 4×60 mg with bags placed above the cluster in the top box (below the queen excluder) only; iii) After an additional 14 days, 4×100 mg with two bags placed on top of the lower box (i.e. between the two boxes) and two bags placed on top of the cluster on the top box (just below the queen excluder) iv) After an additional 7 days, 4×100 mg was added and the bags from the previous week were kept in. On the third treatment two Pasteur pipettes with Porapak (wedged between glass wool plugs in the pipette) were installed, one in the middle of the top cluster, the other on the edge of the cluster. These were removed. The colony was fitted with a screened bottom platform and a white Varroa counting drawer underneath the screen. Mites on the counting drawer board were counted every few days.
Porapak cartridges were extracted with hexane:ethyl acetate (4:1) with 40 ng/μL of 1,4-dimethoxybenzene as internal standard. […]

[2] = test system: Varroa mites phoretic on young bees; assay: Example 2 assay on mites phoretic on young bees (mite fall); type: in vivo, Varroa destructor; conditions: 100 microgram/μl solution and dilutions; end of experiment
Description: as §1, §2, §3

Varroa mites [3] = assay: Evaluation of acaricidal effect: emerging bees loaded with Varroa mites in glass petri dish, compound on Parafilm; type: in vivo, Varroa destructor
Description: The effect of the compounds was checked in free moving-mites freshly collected from the bottom board using fine paint brush. All collected Varroa were kept on emerging bees at room temperature until the experiment.
Compounds (code-labeled, Table 1) were prepared in hexane:ethyl acetate (1:1) in 10 mM concentration according to instructions. Dilutions only of compound “A” was prepared. […] This setup enabled the testing of all the compounds and to save the mites.
The assay was conducted in glass petri dish (90 mm diameter and 17 mm deep glass) containing moistened filter paper. Five emerging bees loaded with two Varroa mites were put into each plate. The bees were provided with candy (60% of pollen and 40% sugar). 10 μl or 30 μl volume of each compound or control mix was placed on Parafilm paper (5×5 cm) on the plates cover.

Varroa mites [4] = assay: Example 2 dose response assay on 10 mites per plate; type: in vivo, Varroa destructor; conditions: doses in microgram
Description: as §1
1. Dose response assay on 10 mites per plate. Doses are in microgram.
In the first assay the percentage of dead mites as function of exposure time to different quantities of the compound was measured. […] The effective doses are relatively high.

C=CCOc1ccc(OCCC)cc1 [3c{3,6}, 1-allyloxy-4-propoxybenzene]
acaricidal activity alone (Varroa): acaricidal | condition of bees (young bees): remained in perfect shape | paralysis and mite death in screen (Varroa destructor mites; 1 mg dose, 3 h): most reliable mite paralysis | net paralysis+death of mites, comparison of compounds (Varroa destructor mites; 0.5 and 1 mg/treatment): more active than 3c{6,6} | EC50 for paralysis and eventual death of mites (Varroa destructor mites; neat compound on the source, vapors only, 3 h): 41.5 µg | response of honey bee antennae towards nurse bee head space odor (honey bee antennae): not affected | Varroa foreleg responses towards head space odor of nurse bees (Varroa foreleg): decreases | number of mites found on the bottom board per day [1]: spike in the number of mites | mites dropping from bees as function of time (FIG. 2) [2]: dropped dead off the bees | miticidal effect of dilutions (Varroa mites [3]; dilutions of 10 mM solution, any concentration): no miticidal effect | acaricidal effect (Varroa mites [3]; highest amount tested (30 μl), end of 24 h): clear acaricidal effect | percentage of dead mites as function of exposure time to different quantities (acaricidal effect, FIG. 1) (Varroa mites [4]): clear and it is dose dependent
